This note sets out measurements from patent US11999746B2, “Compounds” (GlaxoSmithKline Intellectual Property Development Limited, priority 2014, dated 2024).

Some results are limits rather than exact numbers.

In test [1] the target is T1, recombinant human Lp-PLA2 (Homo sapiens, UniProt Q13093).
T1 sequence (Q13093 22-441): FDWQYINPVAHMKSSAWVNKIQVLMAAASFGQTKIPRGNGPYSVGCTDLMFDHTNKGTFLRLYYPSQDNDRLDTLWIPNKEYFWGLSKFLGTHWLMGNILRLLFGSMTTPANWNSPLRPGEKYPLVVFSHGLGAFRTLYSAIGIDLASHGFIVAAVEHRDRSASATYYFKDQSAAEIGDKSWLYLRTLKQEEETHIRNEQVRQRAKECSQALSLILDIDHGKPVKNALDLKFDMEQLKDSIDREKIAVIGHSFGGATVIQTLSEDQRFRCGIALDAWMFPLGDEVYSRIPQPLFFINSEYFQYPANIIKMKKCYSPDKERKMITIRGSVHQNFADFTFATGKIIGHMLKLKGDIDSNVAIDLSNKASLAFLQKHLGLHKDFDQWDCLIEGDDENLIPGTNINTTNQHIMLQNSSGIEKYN
As to the kind of experiment: (1a) PED6 assay, recombinant human Lp-PLA2 (rhLp-PLA2). The following applies: Examples 1-167 and 413-430 were tested here, one experiment or average of multiple experiments, read-out: rhLp-PLA2 (pIC50) (converted). Format: biochemical. An excerpt:
(1) Recombinant Human Lp-PLA2 Assays (rhLp-PLA2)
N-((6-(2,4-Dinitrophenyl)amino)-hexanoyl)-2-(4,4-difluoro-5,7-dimethyl-4-bora-3a,4a-diaza-s-indacene-3-pentanoyl)-1-hexadecanoyl-sn-glycero-3-phosphoethanolamine, triethylammonium salt (PED6) is a commercially available fluorescently-labeled phospholipid, which is commercially available from Invitrogene and Molecular Probes. There is a quenching […] and a Bodipy fluorescein (FL) group in the sn2 position. Upon cleavage with Lp-PLA2, the Bodipy FL group is liberated and then may result in an increase in fluorescence. Inhibitors of Lp-PLA2 therefore prevent this cleavage and no fluorescent increase is observed.
The PED6 assay was run as an unquenched 10 μL assay. The source plate containing the compounds to be tested was prepared by making 1:3 (by volume) serial dilution of the compounds within DMSO on 384-well microplate. Then, 0.01 μL of the compounds on compound source plate were transferred into 384 well Greiner 784076 (black) plates using ECHO liquid dispenser. 5 μL of recombinant human Lp-PLA2 enzyme (4 nM) rhLp-PLA2 in assay buffer of 50 mM HEPES, pH 7.4, 150 mM NaCl, 1 mM CHAPS) was added to each well of the plate. Plates were centrifuged for 10 sec at 500 rpm. After 30 minutes preincubation, 5 μL of substrate (4 μM PED6 [from 5 mM DMSO stock] in assay buffer of 50 mM HEPES, pH 7.4, 150 mM NaCl, 1 mM CHAPS) was added to 384 well Greiner 784076 (black) plates. Plates were centrifuged for 10 sec at 500 rpm. The plate was covered to protect it from light and incubated for 20 min at room temperature. The plates were read for fluorescence intensity at ex: 480/em: 540 using ViewLux microplate imager for Envision spectrofluroimeters. pIC50 data, curve and QC analysis was conducted by using XL fit module in Excel.

In a further test the target is T2, Lp-PLA2 in human plasma (Homo sapiens, UniProt Q13093).
T2 construct: from tissue; host or cells: pooled human plasma
T2 sequence (Q13093 22-441): T1 sequence (Q13093 22-441)
The test can be described thus: (3a) Lp-PLA2 human plasma Thio-PAF assay. Format: biochemical. To be noted: (3a) Thio-PAF assay, pooled human plasma; Examples 1-265 and 413-430 were tested here; read-out: pIC50 in the Lp-PLA2 human plasma assay (converted). In short, it runs like this:
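Pooled human plasma preincubated 30 min with serially diluted compound, then given 2-thio-PAF substrate with CPM and NEM in 50 mM HEPES pH 7.4, 150 mM NaCl, 1 mM CHAPS. Reaction quenched with TFA after 2 min; CPM thiol-adduct fluorescence read at ex 380/em 485 after 40 min; pIC50 reported.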

With `O=c1nc(OCc2ccc(Oc3ccc(C(F)(F)F)nc3)c(F)c2)cc2n1CC1CCCCN21` (stereo not drawn) [Example E38, 3-((3-Fluoro-4-((6-(trifluoromethyl)pyridin-3-yl)oxy)benzyl)oxy)-6,7,8,9,9a,10-hexahydro-1H-pyrido[1′,2′:3,4]imidazo[1,2-c]pyrimidin-1-one], the IC50 in test [1] was at most 1 nM; on Lp-PLA2 in human plasma it was at most 100 nM.

Turning to `O=c1nc(OCc2ccc(F)c(F)c2)cc2n1C[C@@H]1CCCCN21` [Example E31, (S)-3-((3,4-Difluorobenzyl)oxy)-6,7,8,9,9a,10-hexahydro-1H-pyrido[1′,2′:3,4]imidazo[1,2-c]pyrimidin-1-one], the IC50 is at most 100 nM in test [1] and at most 10000 nM on Lp-PLA2 in human plasma.

Regarding `O=c1nc(OCc2ccc(Oc3ccnc(C(F)(F)F)c3)c(F)c2)cc2n1C[C@@H]1CCCCN21` [Example E40, (S)-3-((3-Fluoro-4-((2-(trifluoromethyl)pyridin-4-yl)oxy)benzyl)oxy)-6,7,8,9,9a,10-hexahydro-1H-pyrido[1′,2′:3,4]imidazo[1,2-c]pyrimidin-1-one], the IC50 in test [1] is at most 1 nM; at Lp-PLA2 in human plasma it was at most 100 nM.

Consider `O=c1nc(OCc2cc(F)c(Oc3ccc(C(F)(F)F)nc3)c(F)c2)cc2n1C[C@@H]1CCCN21` [Example E80, (S)-3-((3,5-difluoro-4-((6-(trifluoromethyl)pyridin-3-yl)oxy)benzyl)oxy)-7,8,8a,9-tetrahydro pyrrolo[1′,2′:3,4]imidazo[1,2-c]pyrimidin-1(6H)-one], for which the IC50 is at most 100 nM in test [1] and at most 10000 nM on Lp-PLA2 in human plasma.

As for `Cn1cc(Oc2c(F)cc(COc3cc4n(c(=O)n3)CC3COCCN43)cc2F)cn1` (stereo not drawn) [Example E108, 7-((3,5-Difluoro-4-((1-methyl-1H-pyrazol-4-yl)oxy)benzyl)oxy)-3,4,11,11a-tetrahydro pyrimido[6′,1′:2,3]imidazo[5,1-c][1,4]oxazin-9(1H)-one], the IC50 (in test [1]; on Lp-PLA2 in human plasma) was at most 100 nM throughout.

Take `O=c1nc(OCc2ccc(F)cc2F)cc2n1C[C@H]1COCCN21` [Example E126, (S)-7-((2,4-difluorobenzyl)oxy)-3,4,11,11a-tetrahydropyrimido[6′,1′:2,3]imidazo[5,1-c][1,4] oxazin-9(1H)-one]: the IC50 in test [1] was at most 100 nM; on Lp-PLA2 in human plasma, at most 10000 nM.

`O=c1nc(OCc2cc(F)c(F)c(F)c2)cc2n1C[C@@H]1COCN21` [Example E153, (R)-6-((3,4,5-trifluorobenzyl)oxy)-10,10a-dihydro-1H-oxazolo[3′,4′:3,4]imidazo[1,2-c] pyrimidin-8(3H)-one]: the IC50 in test [1] was at most 100 nM; on Lp-PLA2 in human plasma, at most 10000 nM.

`O=c1nc(OCc2ccc(F)cc2)cc2n1C[C@@H]1CCCCN21` [Example E34, (S)-3-((4-Fluorobenzyl)oxy)-6,7,8,9,9a,10-hexahydro-1H-pyrido[1′,2′:3,4]imidazo-[1,2-c] pyrimidin-1-one]: the IC50 in test [1] is at most 100 nM; on Lp-PLA2 in human plasma it was at most 10000 nM.

Regarding `O=c1nc(OCc2ccc(Oc3ccnc(C(F)(F)F)c3)c(F)c2)cc2n1CC1CCCCN21` (stereo not drawn) [Example E17, 3-((3-Fluoro-4-((2-(trifluoromethyl)pyridin-4-yl)oxy)benzyl)oxy)-6,7,8,9,9a,10-hexahydro-1H-pyrido[1′,2′:3,4]imidazo[1,2-c]pyrimidin-1-one], the IC50 in test [1] was at most 1 nM; at Lp-PLA2 in human plasma, at most 100 nM.

`O=c1nc(OCc2cc(F)c(Oc3ccc(F)c(F)c3)c(F)c2)cc2n1C[C@@H]1CCCN21` [Example E74, (S)-3-((4-(3,4-difluorophenoxy)-3,5-difluorobenzyl)oxy)-7,8,8a,9-tetrahydropyrrolo[1′,2′:3,4]imidazo[1,2-c]pyrimidin-1(6H)-one]: the IC50 in test [1] is at most 100 nM; at Lp-PLA2 in human plasma it was at most 10000 nM.

Turning to `O=c1nc(OCc2cc(F)c(Oc3ccnc(C(F)(F)F)c3)c(F)c2)cc2n1C[C@H]1COCN21` [Example E141, (S)-6-((3,5-difluoro-4-((2-(trifluoromethyl)pyridin-4-yl)oxy)benzyl)oxy)-10,10a-dihydro-1H-oxazolo[3′,4′:3,4]imidazo[1,2-c]pyrimidin-8(3H)-one], the IC50 was at most 1 nM in test [1] and at most 100 nM at Lp-PLA2 in human plasma.

For `O=c1nc(OCc2cc(F)cc(F)c2)cc2n1C[C@H]1COCCN21` [Example E129, (S)-7-((3,5-difluorobenzyl)oxy)-3,4,11,11a-tetrahydropyrimido[6′,1′:2,3]imidazo[5,1-c][1,4] oxazin-9(1H)-one], the IC50 (in test [1]; on Lp-PLA2 in human plasma) was at most 100 nM in each case.

`O=c1nc(OCc2ccc(F)c(F)c2)cc2n1C[C@H]1CCCCN21` [Example E30, (R)-3-((3,4-Difluorobenzyl)oxy)-6,7,8,9,9a,10-hexahydro-1H-pyrido[1′,2′:3,4]imidazo[1,2-c]pyrimidin-1-one]: the IC50 (in test [1]; at Lp-PLA2 in human plasma) was at most 100 nM throughout.

In the case of `O=c1nc(OCc2cc(F)c(F)c(F)c2)cc2n1CC1CCCN21` (stereo not drawn) [Example E89, 3-((3,4,5-Trifluorobenzyl)oxy)-7,8,8a,9-tetrahydropyrrolo[1′,2′:3,4]imidazo[1,2-c] pyrimidin-1(6H)-one], the figures for the IC50 (in test [1]; on Lp-PLA2 in human plasma) were at most 100 nM and at most 10000 nM, respectively.

For the molecule `O=c1nc(OCc2cc(F)c(Oc3ccnc(C(F)(F)F)c3)c(F)c2)cc2n1CC1CCCCN21` (stereo not drawn) [Example E37, 3-((3,5-difluoro-4-((2-(trifluoromethyl)pyridin-4-yl)oxy)benzyl)oxy)-6,7,8,9,9a,10-hexahydro-1H-pyrido[1′,2′:3,4]imidazo[1,2-c]pyrimidin-1-one], the IC50 in test [1] was at most 1 nM; on Lp-PLA2 in human plasma it was at most 100 nM.

Turning to `O=c1nc(OCc2cc(F)c(F)c(F)c2)cc2n1C[C@H]1CCCCN21` [Example E54, (R)-3-((3,4,5-Trifluorobenzyl)oxy)-6,7,8,9,9a,10-hexahydro-1H-pyrido[1′,2′:3,4]imidazo[1,2-c]pyrimidin-1-one], the IC50 (in test [1]; on Lp-PLA2 in human plasma) was at most 100 nM each time.

Consider `O=c1nc(OCc2ccc(Oc3cncc(C(F)(F)F)c3)c(F)c2)cc2n1CC1CCCCN21` (stereo not drawn) [Example E47, 3-((3-Fluoro-4-((5-(trifluoromethyl)pyridin-3-yl)oxy)benzyl)oxy)-6,7,8,9,9a,10-hexahydro-1H-pyrido[1′,2′:3,4]imidazo[1,2-c]pyrimidin-1-one], for which the figures for the IC50 (in test [1]; on Lp-PLA2 in human plasma) were at most 1 nM and at most 100 nM, respectively.

Regarding `CN1c2cc(OCc3ccc(F)cc3F)nc(=O)n2CC12CCC2` [Example 416, 7′4(2,4-difluorobenzyhoxy)-1-methyl-1H-spiro[cyclobutane-1,2′-imidazo[1,2-c]pyrimidin]-5′(3′H)-one], the figures for the IC50 (in test [1]; at Lp-PLA2 in human plasma) were at most 100 nM and at most 10000 nM, respectively.

As to `O=c1nc(OCc2cccc(F)c2)cc2n1C[C@@H]1CCCCN21` [Example E60, (S)-3-((3-Fluorobenzyl)oxy)-6,7,8,9,9a,10-hexahydro-1H-pyrido[1′,2′:3,4]imidazo[1,2-c] pyrimidin-1-one], the values for the IC50 (in test [1]; at Lp-PLA2 in human plasma) were at most 100 nM and at most 10000 nM, respectively.

Regarding `O=c1nc(OCc2ccc(Oc3ccc(F)c(C(F)(F)F)c3)nc2)cc2n1C[C@@H]1CCCN21` [Example E84, (S)-3-((6-(4-fluoro-3-(trifluoromethyl)phenoxy)pyridin-3-yl)methoxy)-7,8,8a,9-tetrahydro pyrrolo[1′,2′:3,4]imidazo[1,2-c]pyrimidin-1(6H)-one], the IC50 was at most 100 nM in test [1] and at most 10000 nM at Lp-PLA2 in human plasma.

`CCCn1cc(Oc2c(F)cc(COc3cc4n(c(=O)n3)C[C@H]3COCCN43)cc2F)cn1` [Example E112, (S)-7-((3,5-difluoro-4-((1-propyl-1H-pyrazol-4-yl)oxy)benzyl)oxy)-3,4,11,11atetrahydropyrimido[6′,1′:2,3]imidazo[5,1-c][1,4]oxazin-9(1H)-one]: the IC50 in test [1] is at most 1 nM; on Lp-PLA2 in human plasma, at most 100 nM.
